Assay results as given in patent US20060194260A1, “Screening assays for cannabinoid-ligand-type modulators of gpr55” (priority 2003, published 2006).

How the values were obtained:
[1] = biological target: T1, GPR55A (Homo sapiens, UniProt Q9Y2T6); assay: GTPγS binding assay on membranes of GPR55A-transfected HEK293s cells; assay type: biochemical; settings: for EC50: NA = not active; for activation of GPR55A (GTPγS): concentration response
T1 construct: expressed in transfected cells; host or cells: HEK293s (transient, pIRESneo2 vector), membranes
Protocol: Membranes with or without 20 μM ligand were assayed for their stimulatory or inhibitory activity on GTPγS binding. As a negative control, cell membranes were prepared from empty vector-transfected cells, and as a positive control, cell membranes were prepared from CB1 transfected cells.
Receptor activity was determined using a GTPγS binding assay as follows: 10 μg of membranes diluted in 200 μl of 100 mM NaCl, 5 mM MgCl2, 1 mM EDTA, 50 mM HEPES (pH 7.4), 1 mM DTT, 0.1% BSA and 100 μM GDP. To this was added the required concentration of test compound and […] ^35S-GTPγS in the presence or absence of an EC80 concentration of agonist (HU210). […] Samples were then transferred on to GF/B filters using a cell harvester and washed with wash buffer (50 mM Tris (pH 7.4), 5 mM MgCl2, 50 mM NaCl). Filters were then covered with scintilant and counted for the amount of ^35S-GTPγS retained by the filter. To determine the level of non-specific binding control reactions were performed in the presence of 10 μM GTPγS.
Functional activity of ligands either in the presence or absence of agonists was determined as follows: Non-specific binding was subtracted from all values determined. The effect of compounds at various concentrations was plotted according to the equation y=A+((B−A)/1+((C/x)?ˆD))) and EC50 or IC50 estimated. Results
To further define the agonist activities of cannabinoid ligands EC50 determinations were made. […] Refer to FIGS. 5A-5D for the results. […] Table 1. Activity of ligands at GPR55A (Antagonist data were generated in the presence of an EC80 concentration of HU210.)

[2] = biological target: T2, GPR55 (Homo sapiens, UniProt Q9Y2T6); assay: Radioligand binding, membranes of GPR55-transfected HEK293S cells; settings: for specific binding of radioligand: 1.6 nM radioligand
T2 construct: FLAG; expressed in transfected cells; host or cells: HEK293S (transient), membranes
Protocol: (§1) To test whether GPR55 and/or GPR55Δ encoded a receptor that had the potential to perform as a cannabinoid receptor we transiently transfected cDNAs encoding FLAG-tagged forms of the receptors into HEK293S cells using lipofectamine. The cells were harvested 48 hours later and membranes prepared.
(§2) Membrane preparations were prepared by re-suspending receptor expressing cells in ice cold TE buffer (10 mM Tris-HCL 0.1 mM EDTA pH7.5) and leaving on ice for 5 minutes before pelleting the insoluble material by centrifugation at 1000 g. This process was repeated twice before re-suspending the pellet in an appropriate volume of TE and storing at −80° C.
(§3) Test compounds were added followed by 1.6 nM radioligand (3H—SR-141716A, ^3H-CP55940 or ^3H-WIN-55, 212-2) to an assay mixture containing membranes (10 μg protein) in 5.0 mM Tris, 5.0 mM MgCl2×6H2O (pH 7.4) supplemented with 0.05% BSA. The reaction was allowed to proceed at 30° C. for 90 min and then terminated by rapid filtration using GF/B filters (pre-soaked in 0.05% PEI) and washed with 50 mM Tris (pH 7.4), MgCl2×6H2O. Filters were then covered with scintillant and counted for the amount of radioligand retained. Non-specific binding was determined in the presence of 200 nM SR-141716A, CP55940 or WIN-55, 212-2.

[3] = biological target: T1, GPR55A; assay: Radioligand binding, membranes of GPR55A-transfected HEK293S cells; settings: for specific binding of radioligand: 1.6 nM radioligand
Protocol: as §1, §2, §3

[4] = Radioligand binding, membranes of vector-transfected cells (negative control); settings: vector-transfected cell membranes
Protocol: as §3

[5] = GTPγS binding, GPR55A membranes

T2 sequence (Q9Y2T6 whole entry L132S/R133G/S134P/R136G/K137R/I138S/F139L/I141S/C142A): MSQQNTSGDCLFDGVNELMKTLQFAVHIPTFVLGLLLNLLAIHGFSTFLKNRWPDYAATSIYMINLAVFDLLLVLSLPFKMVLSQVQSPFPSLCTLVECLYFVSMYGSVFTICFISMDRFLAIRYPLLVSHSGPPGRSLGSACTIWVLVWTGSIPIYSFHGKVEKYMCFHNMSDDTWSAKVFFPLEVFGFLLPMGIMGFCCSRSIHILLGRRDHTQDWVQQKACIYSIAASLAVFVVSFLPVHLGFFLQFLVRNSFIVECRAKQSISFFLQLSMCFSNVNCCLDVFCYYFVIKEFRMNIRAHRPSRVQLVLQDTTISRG
T1 sequence (Q9Y2T6 whole entry): as the sequence (Q9Y2T6 whole entry L132S/R133G/S134P/R136G/K137R/I138S/F139L/I141S/C142A) above, with S132L, G133R, P134S, G136R, R137K, S138I, L139F, S141I, A142C counted along it

Structure (SMILES) | EC50 [1, 5] [µM] | activation of GPR55A (GTPγS) [1] | other results
CCCCCCC(C)(C)c1ccc([C@@H]2C[C@H](O)CC[C@H]2CCCO)c(O)c1 [CP55940] | 0.0071 ± 0.0013 | – | concentration dependent activity after pertussis toxin or cholera toxin treatment ([1]; GPR55a in HEK293s membranes, treated with either toxin vs untreated): remains unaltered
CCCCCCCCCCCCCCCC(=O)NCCO [Palmitoylethanolamide] | 0.0032 ± 0.0013 | concentration-dependent activation | –
Cc1c(C(=O)NN2CCCCC2)nn(-c2ccc(Cl)cc2Cl)c1-c1ccc(Cl)cc1 [[^3H]-SR141716] | – | – | specific binding of radioligand [2]: significant binding; specific binding of radioligand [3]: significant binding
CCCCCCCC/C=C\CCCCCCCC(=O)NCCO [Oleylethanolamide] | 0.424 ± 0.203 | – | –
C=C(C)[C@@H]1CCC(C)=C[C@H]1c1c(O)cc(CCCCC)cc1O [Cannabidiol] | – | – | IC50 ([1]; GTPγS binding, GPR55A membranes, antagonist data in the presence of an EC80 concentration of HU210, read-out: IC50 measurement): 0.354 ± 0.063 µM
CCCn1c(C)c(C(=O)c2cccc3ccccc23)c2ccccc21 [JWH-015] | 0.00475 ± 0.00025 | – | –
Cc1c(C(=O)NN2CCCCC2)nn(-c2ccc(Cl)cc2Cl)c1-c1ccc(Cl)cc1 [SR141716] | – | – | displacement of [^3H]-SR141716 (competition-binding curve) [2]: nanomolar affinity; displacement of [^3H]-SR141716 (competition-binding curve) [3]: nanomolar affinity; specific binding, [^3H]-SR141716 competition [4]: no specific binding
CCCCCCC(C)(C)c1cc(O)c2c(c1)OC(C)(C)[C@@H]1CC=C(CO)C[C@@H]21 [Hu210] | 0.033 ± 0.012 | – | –
CCCCCCC(C)(C)c1ccc([C@@H]2C[C@H](O)CC[C@H]2CCCO)c(O)c1 [[^3H]-CP55940] | – | – | specific binding of radioligand [2]: significant binding; specific binding of radioligand [3]: significant binding
C=C(C)[C@@H]1CCC(C)=C[C@H]1c1c(O)cc(O)cc1CCCCC [Abnormal cannabidiol] | 2.78 ± 0.098 | – | –
CCCCC/C=C\C/C=C\C/C=C\C/C=C\CCCC(=O)OCCN [Virodhamine] | 0.0104 ± 0.0014 | – | –
CCCCCc1cc(O)c2c(c1)OC(C)(C)[C@@H]1CCC(C)=C[C@@H]21 [Δ9-THC, Δ9-tetrahydrocannbinol] | 0.0089 ± 0.0011 | concentration-dependent activation | –
CCCCC/C=C\C/C=C\C/C=C\C/C=C\CCCC(=O)OC(CO)CO [2-AG, 2-aracodonylglycerol] | 0.0035 ± 0.0024 | concentration-dependent activation | –
CCCCC/C=C\C/C=C\C/C=C\C/C=C\CCCC(=O)NCCO [Anandamide] | 0.0184 ± 0.0041 | concentration-dependent activation | –
CCCCC/C=C\C/C=C\C/C=C\C/C=C\CCCCOC(CO)CO [Noladin Ether] | 0.0115 ± 0.0005 | concentration-dependent activation | –
Cc1c(C(=O)c2cccc3ccccc23)c2cccc3c2n1C(CN1CCOCC1)CO3 (stereo not drawn) [[^3H]-WIN55-212] | – | – | specific binding of radioligand [2]: little or no binding; specific binding of radioligand [3]: little or no binding
